This note sets out measurements from US7074831B2, “Compounds, methods for their preparation and use thereof” (Active Biotech AB, priority 2004, dated 2006).

The structures appear in SMILES notation. Like-named read-outs stand apart in the source and are kept apart here.

The target of data set [1] is recombinant human DHODH (Homo sapiens, UniProt Q02127). In words: Inhibition assay of DHODH activity (DHO-driven reduction of DCIP). Format: biochemical. Here is the method: Inhibition of recombinant human DHODH was assayed by the dihydroorotate (DHO) driven reduction of dichloroindophenol (DCIP), (Bruneau et al., 1998). The standard assay mixture contained 0.4 μg/mL recombinant protein, 50 mM Tris pH8, 100 μM decylubiquinone, 1 mM KCN, 200 μM DCIP and 0.1% Triton X-100. Inhibitory compounds were added at 10 different concentrations and the enzyme reaction initiated by the addition of 500 μM DHO. The reaction was allowed to continue for 10 minutes before the reduction of DCIP was measured in a microtiterplate reader as a decrease in absorbance at 650 nm. The IC50 values (concentration of inhibitor required for 50% inhibition) for each compound were calculated from the obtained dose response curves.
Chain of recombinant human DHODH (Q02127 whole entry): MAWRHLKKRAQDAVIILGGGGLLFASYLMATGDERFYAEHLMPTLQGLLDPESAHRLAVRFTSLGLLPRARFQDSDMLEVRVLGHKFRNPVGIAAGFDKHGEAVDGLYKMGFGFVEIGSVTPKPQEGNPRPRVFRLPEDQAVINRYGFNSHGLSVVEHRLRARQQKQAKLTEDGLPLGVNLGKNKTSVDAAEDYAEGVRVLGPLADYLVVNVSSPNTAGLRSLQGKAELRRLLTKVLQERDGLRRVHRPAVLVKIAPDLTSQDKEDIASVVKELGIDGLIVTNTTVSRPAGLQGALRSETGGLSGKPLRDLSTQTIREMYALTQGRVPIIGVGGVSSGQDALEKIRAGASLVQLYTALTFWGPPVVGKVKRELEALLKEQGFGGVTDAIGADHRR

The subject of data set [2] is human T lymphoblast cell line (Jurkat). In words: Inhibition of T-cell proliferation (3H-TdR incorporation). It is filed as cell-based. The conditions noted are these: Jurkat cells; for IC50: 3 days, read-out: Inhibition of T-cell proliferation in vitro. IC50. Here is the method: Inhibition of T cell proliferation was studied in a functional assay. A human T lymphoblast cell line (Jurkat) was cultured in the presence and absence of DHODH inhibiting compounds. Jurkat cells were seeded in microtiterplates at a concentration of 5×10^5/mL in RPMI 1640 growth media supplemented with ultraglutamin, 10% fetal calf serum, 1 mM sodium pyruvat, 10 mM HEPES and 0.1 mg/mL gentamycin. A dilution series of ten different concentrations of inhibitor was added to the wells and the plates were kept in a cell incubator for 3 days. At the beginning of the last 4 hours period, the cultures were pulsed with 10 μl/well 0.1Ci/mmol ^3H-TdR and then harvested on filter papers and counted with a β-counter. The IC50 values for each compound were calculated from the obtained dose response curves. Adding 50 μM uridine to the wells monitored the specificity for the mechanism. This reverses the antiproliferative effect by bypassing the DHODH enzyme using an external source of pyrimidine.
Inhibition of T cell proliferation was studied in a functional assay. Table 1 exemplifies the invention, without limiting the scope thereof. A human T lymphoblast cell line (Jurkat) was cultured in the presence of the compound to be screened. The IC50 value for each compound was calculated from the dose response curve. Adding uridine was used to monitor the specificity of the DHODH mechanism.

Data set [3] can be described thus: Determination of pharmacokinetic properties in the mouse (cassette dosing). Format: in vivo. The conditions noted are these: female, SJL/N Tac, plasma, iv, i.v. administration, nominal dose 1 mg/kg/compound. How it is done: Female mice (SJL/N Tac) were given a single intravenous or oral dose of a mixture of 4 or 6 compounds per cassette (nominal dose: 1 mg/kg/compound). The test items were formulated in physiological saline/5% Cremophor® to a final concentration of each 0.1 mg/mL. Blood samples were collected from vena cava (terminal bleed) into sodium heparinised tubes. The dose formulations and plasma concentrations of each compound were determined by LC-MS/MS. The pharmacokinetic parameters were determined by non-compartmental analysis using WinNonlin Professional (version 4.0.1).
The clearance (CL) and half-life (t1/2) of representative compounds in the mouse following i.v. administration are shown in Table 2. Table 2 exemplifies the invention, without limiting the scope thereof.

For the compound `COc1ccc(OC)c(COc2ccc(O)c(C(=O)O)c2)c1` [5-(2,5-dimethoxy-benzyloxy)-2-hydroxy-benzoic acid], in data set [1], the “DHODH inhibition (in words)” value is “inactive”. Regarding `CCCNc1ccccc1Sc1ccc(NC(=O)CC)c(C(=O)O)c1` [Compound AA, 2-propionylamino-5-(2-propylamino-phenylsulfanyl)-benzoic acid], the IC50 in data set [2] (Homo sapiens, 72 h) stood at 40 nM. In the case of `CCCN(CCC)c1ccccc1Oc1ccc(NC(=O)CC)c(C(=O)O)c1` [Compound AB, 5-(2-dipropylamino-phenoxy)-2-propionylamino-benzioc acid], in data set [2], the IC50 worked out at 150 nM. Consider `CCC(=O)Nc1ccc(OCc2ccccc2OC(F)(F)F)cc1C(=O)O` [Compound AC, 2-propionylamino-5-(2-trifluoromethoxy-benzyloxy)-benzoic acid], for which the IC50 in data set [2] (Homo sapiens, 72 h) was found to be 300 nM. For `CCC(=O)Nc1ccc(COc2ccccc2OC(F)(F)F)cc1C(=O)O` [Compound AD, 2-propionylamino-5-(2-trifluoromethoxy-phenoxymethyl)-benzoic acid], the IC50 in data set [2] (Homo sapiens, 72 h) was 240 nM. With `CCC(=O)Nc1ccc(Sc2ccccc2OC(F)(F)F)cc1C(=O)O` [Compound AE, 2-propionylamino-5-(2-trifluoromethoxy-phenylsulfanyl)-benzioc acid], the IC50 in data set [2] was 390 nM. Turning to `CC(=O)Nc1ccc(CCc2ccccc2)cc1C(=O)O` [Compound AF, 2-Acetylamino-5-phenethyl-benzoic acid, reference compound], in data set [3], the clearance (as a rule, a measure of how efficiently the substance is removed, as volume per time) is 16.2 mL/min/kg and the half-life – broadly, the time needed for the level to fall by half in the phase considered – is 0.29 h. In data set [3], `CCC(=O)Nc1ccc(/C=C/c2ccccc2)cc1C(=O)O` [Compound AG, 2-Propionylamino-5-[(E)-styryl]-benzoic acid] showed a clearance of 2 mL/min/kg and a half-life of 10 h. Consider `CCC(=O)Nc1ccc(Cc2ccccc2)cc1C(=O)O` [Compound AH, 5-Benzyl-2-propionylamino-benzoic acid], for which, in data set [3], the clearance was 0.3 mL/min/kg and the half-life is 6.6 h. Consider `COc1ccc(OC)c(COc2ccc(NC(C)=O)c(C(=O)O)c2)c1` [Compound G, 2-acetylamino-5-(2,5-dimethoxy-benzyloxy)-benzoic acid, reference compound], for which, in data set [3], the clearance was 11.8 mL/min/kg and the half-life is 0.3 h. Further, the IC50 in data set [2] (Homo sapiens, 72 h) is 6200 nM. For the same compound, in data set [2], the “inhibitory effect on T-cell proliferation (in words)” value (from here on “inhibitory effect”) is “only a weak inhibitory effect”.

In the case of `COc1ccc(OC)c(CCc2ccc(NC(C)=O)c(C(=O)O)c2)c1` [Compound H, 2-Acetylamino-5-[2-(2,5dimethoxy-phenyl)-ethyl]-benzoic acid, reference compound], the IC50 in data set [2] (Homo sapiens, 72 h) turned out to be 12000 nM. Besides, the “inhibitory effect” value in data set [2] is “very weak inhibitory effect”. For the compound `CCC(=O)Nc1ccc(CCc2ccccc2C(F)(F)F)cc1C(=O)O` [Compound J, 2-propionylamino-5-[2-(2-trifluoromethyl-phenyl)-ethyl]-benzoic acid, reference compound], the IC50 in data set [2] (Homo sapiens, 72 h) is 2900 nM. The “inhibitory effect” value in data set [2] is listed as “weak antiproliferative effect”. In data set [3], `CCC(=O)Nc1ccc(NCc2ccccc2C(F)(F)F)cc1C(=O)O` [Compound K, 2-propionylamino-5-(2-trifluoromethyl-benzylamino)-benzoic acid] showed a clearance of 1.17 mL/min/kg and a half-life of 2.2 h. In addition, in data set [2] (Homo sapiens, 72 h), the IC50 stood at 790 nM.

In data set [3], `CCC(=O)Nc1ccc(Oc2ccccc2C(F)(F)F)cc1C(=O)O` [Compound L, 2-propionylamino-5-(2-trifluoromethyl-phenoxy)-benzoic acid] showed a clearance of 0.25 mL/min/kg and a half-life of 3.1 h. Besides, the IC50 in data set [2] (Homo sapiens, 72 h) is 780 nM.

In data set [3], `CCC(=O)Nc1ccc(OCc2ccccc2C(F)(F)F)cc1C(=O)O` [Compound M, 2-propionylamino-5-(2-trifluoromethyl-benzyloxy)-benzoic acid] had a clearance of 1.83 mL/min/kg and a half-life of 4.9 h. In addition, in data set [2] (Homo sapiens, 72 h), the IC50 was 330 nM. In data set [3], `CCC(=O)Nc1ccc(COc2ccccc2C(F)(F)F)cc1C(=O)O` [Compound N, 2-propionylamino-5-(2-trifluoromethyl-phenoxymethyl)-benzoic acid] gave a clearance of 2.33 mL/min/kg and a half-life of 1.5 h. Besides, the IC50 in data set [2] (Homo sapiens, 72 h) came to 520 nM. Consider `CCC(=O)Nc1ccc(Sc2ccccc2C(F)(F)F)cc1C(=O)O` [Compound O, 2-propionylamino-5-(2-trifluoromethyl-phenylsulfanyl)-benzoic acid], for which, in data set [3], the clearance was 0.55 mL/min/kg and the half-life was 4.6 h. Also, in data set [2] (Homo sapiens, 72 h), the IC50 came out at 250 nM.

`CCC(=O)Nc1ccc(CSc2ccccc2C(F)(F)F)cc1C(=O)O` [Compound P, 2-propionylamino-5-(2-trifluoromethyl-phenylsulfanylmethyl)-benzoic acid]: the IC50 in data set [2] (Homo sapiens, 72 h) is 210 nM. For the compound `CCC(=O)Nc1ccc(/C=C/c2ccccc2C(F)(F)F)cc1C(=O)O` [Compound Q], in data set [2], the IC50 is 110 nM.

For `CCC(=O)Nc1ccc(/C=C/c2cccc(C(F)(F)F)c2)cc1C(=O)O` [Compound R], in data set [2], the IC50 was found to be 450 nM.

In the case of `CCC(=O)Nc1ccc(Oc2cc(C(F)(F)F)cc(C(F)(F)F)c2)cc1C(=O)O` [Compound S, 5-(3,5-bis-trifluoromethyl-phenoxy)-2-propionylamino-benzoic acid], the IC50 in data set [2] (Homo sapiens, 72 h) turned out to be 140 nM. On to `CCCNc1ccccc1Oc1ccc(NC(=O)CC)c(C(=O)O)c1` [Compound T, 2-propionylamino-5-(2-propylamino-phenoxy)-benzoic acid], for which, in data set [2] (Homo sapiens, 72 h), the IC50 amounted to 240 nM. For `CCCNc1ccccc1COc1ccc(NC(=O)CC)c(C(=O)O)c1` [Compound U, 2-propionylamino-5-(2-propylamino-benzyloxy)-benzoic acid], the IC50 in data set [2] (Homo sapiens, 72 h) came to 110 nM.
